Laboratory results from a melting point compilation (Tetko et al.; mined from patent text by program, amines drawn as free bases though some values may be those of a salt).
Non-standard residues stand in square brackets, D forms with d. Residues, ends and D or L forms follow the SMILES beside them. ξ: configuration not given here. *: point of attachment. ξQ = NC(=O)CCC(N)C(=O)O; Cbz = O=C(OCc1ccccc1)*

SMILES	melting point [°C]
CCOCc1nc2c(N)nc3cc(Cl)ccc3c2n1CC(C)(C)O	238 to 240
CC(=S)NC[C@H]1CN(c2ccc3c(c2)C[C@@H](C)N3C=O)C(=O)O1	95 to 96
COc1ccc(C(=O)Nc2ccccc2)cc1NC(=S)Nc1ccc([N+](=O)[O-])cc1	183 to 184
CCOC(=O)c1cnc2c(c1)C(=O)C=CC2=O	124
CCCCN1CCC(N(Cc2ccc(Nc3ccnc4ccccc34)cc2)C(C)=O)CC1	85 to 105
Cn1cc(Br)cc(Nc2ccn(C3CC3)n2)c1=O	161 to 163
COc1ccc([N+](=O)[O-])c(-c2cc(OC)ccc2[N+](=O)[O-])c1	148 to 149
O=c1[nH]c2sc3ccc(C(F)(F)F)cc3c2[nH]c1=O	> 320
C[C@@H](Nc1ncnc2[nH]c(-c3ccc(CN4CCNCC4)cc3)cc12)c1ccccc1	240 to 242
CC(=O)SCCCCC(=O)c1cccnc1	43
N#Cc1ccc(N2C=CC(N)=C([N+](=O)[O-])C2)cc1	210 to 211
CC(c1ccc2c(c1)N(Cc1ccc(S(C)(=O)=O)cc1)c1ccccc1S2)N(O)C(N)=O (stereo not drawn)	143 to 145
CCC1(CC)CCSc2c(CC#Cc3ccc(C=O)cc3)cccc21	55 to 63
CCCc1nc(-c2cccnc2)cnc1Cl	207 to 209
COC(=O)/C=C\c1cnn(C)c1-c1ccc(F)cc1	108 to 109
Cc1cn2nc(-c3ccccc3)nc2cc1C(=O)O	228 to 233
[N-]=[N+]=NCCc1ccc(C(N)=O)s1	104 to 105
Cc1ccc(-c2cc(C(=O)O)c(=O)n(CC(C)C)n2)cc1F	159 to 160
O=c1oc(-c2cccc(OC(F)F)c2)nc2ccccc12	84 to 87
CCCCCCCCCCN1CC(C(=O)OC)N(S(=O)(=O)c2ccc(-c3ccc(Br)cc3)cc2)CC1=O (stereo not drawn)	117 to 118
CCN(CC)C(=O)n1ccc(S(=O)(=O)c2ccc(C)c(C)c2)n1	85 to 86
O=C(CC(c1ccccc1)c1ccccc1)NC(Cc1ccccc1)C(=O)O (stereo not drawn)	138 to 140
CN1CC(C(=O)N(C)Cc2ccc(Cl)c(Cl)c2)=C(O)C1=O	148 to 150
CCOC(=O)Cc1csc(NC(=O)C(F)(F)F)n1	119 to 121
Cc1cccc(Nc2ncnc3ccc(CSc4nccn4C)cc23)c1	137 to 139

SMILES	melting point [°C]
CCCn1c(=Nc2ccc([N+](=O)[O-])cc2)sc2ncccc2c1=O	112 to 113
COC(=O)COc1cc(Cl)c(C(=O)CBr)cc1Cl	89 to 90
CC(C)C(NC(=O)OC(C)(C)C)C(=O)OCN1C(=O)CCC(N2C(=O)c3ccccc3C2=O)C1=O (stereo not drawn)	82 to 85
CCCc1nc2c(N)nc3ccccc3c2n1CCCC1(C)OCCO1	184 to 186
CC(=O)C1(C)CCCS1(=O)=O (stereo not drawn)	47 to 48
CCOC(=O)C1=C(C)NC(=S)N(C(=O)c2ccccc2)C1c1cccc([N+](=O)[O-])c1 (stereo not drawn)	173 to 175
O=C(OCc1ccccc1)c1ccc(OC(=O)c2ccccc2C(=O)Oc2ccc(C(=O)OCc3ccccc3)cc2)cc1	100 to 103
COC(=O)CNC(=O)CNC(=O)C(CCC(N)=O)NC(=O)OCc1ccccc1 (stereo not drawn) (Cbz-[ξQ]-Gly-Gly-OMe)	129 to 134
CCC(=Cc1cn(CC(=O)N(C)CCc2ccccc2)c2cccc(OCc3ccccc3)c12)C(=O)O	170 to 174
NC(=O)C(CCC(=O)OCc1ccccc1)N1Cc2c(OCc3ccc(CN4CCOCC4)cc3)cccc2C1=O (stereo not drawn)	141 to 143
O=C(Cn1cc(Cl)cnc1=O)c1ccc([N+](=O)[O-])cc1	232 to 236
COc1ccc(Cl)cc1C1(F)C(=O)Nc2cc(C(F)(F)F)cc(C(F)(F)F)c21 (stereo not drawn)	262 to 264
Fc1cc(F)c(-c2c(Cl)nc(Cl)n2-c2ccc(Cl)cc2)c(F)c1	112 to 119
CNC(=O)CCCSc1nccc(NC(N)=NCC(F)(F)F)n1	153 to 155
CS(=O)(=O)OCC1OC2CC(CC(OS(C)(=O)=O)C2)O1 (stereo not drawn)	137 to 138
OCC1OC(n2ncc3c(SCC=Cc4ccccc4)ncnc32)C(O)C1O (stereo not drawn)	165 to 166
CCCCc1oc2ccccc2c1C(Sc1nc2ccccc2s1)c1ccc(-c2ccc(O)cc2)cc1 (stereo not drawn)	130 to 132
CCOC(=O)CN(C)C(=O)CC1=C(n2nc(-c3c(-c4ccccc4)nn4ccccc34)ccc2=O)CCCC1	56 to 60
NS(=O)(=O)Oc1ccc2c(C3CCCCC3)csc2c1	128
CN(C)c1ccc(-c2cn[nH]c2N)cc1	173 to 176
CCOC(=O)/C=C(C)/C=C/C=C(\C)C1=Cc2cc(C)ccc2OC1	135
Nc1ccc(NC(=O)[C@H](Cc2ccccc2)NC(=O)c2ccc(-c3nnn[nH]3)cc2)cc1	137
CC(C)(C)OC(=O)NCCN1CC2CN(Cc3ccccc3)CC(C1)O2	58 to 60
Cc1cccc(NC(=O)NCC(=O)N(CC(=O)OCC2CC2)c2ccccc2)c1	158
Cc1nc(N2CCc3ccccc3CC2)c(C#N)c(=O)n1N	137 to 142

SMILES	melting point [°C]
CN1C(=O)C(C(=O)Nc2ccc(Cl)c(C(F)(F)F)c2)S(=O)(=O)c2ccc(Cl)cc21 (stereo not drawn)	220 to 222
N#Cc1cc(NC(=O)c2cccn2-c2ccc(F)cc2)ccc1N1CCCCC1	158 to 159
O=c1ccc2c(=O)c3ccccc3ccc2[nH]1	320
COc1ccc(-c2csc(Nc3ccc(C)cn3)n2)c(OC)c1	157 to 158
C[C@@H](NC(=O)OC(C)(C)C)C(=O)NCCCN1CCN(CCCNc2cccc3c2C(=O)c2ccccc2C3=O)CC1	78 to 80
CC=CCNc1cc(C(=O)O)cc(S(N)(=O)=O)c1-c1ccccc1	186 to 187
CC12CCC3c4ccc(C(=O)O)cc4CCC3C1CCC2C(=O)c1ccco1 (stereo not drawn)	180 to 182
CCOC(=O)CC(Nc1ccccc1)c1ccccc1 (racemic)	87
COC(=O)Cn1c(C)cc(Cc2ccsc2)c([N+](=O)[O-])c1=O	157 to 158
O=C1C2CCCCC2C(=O)N1c1ccc(F)cc1F (stereo not drawn)	117 to 123
Brc1cccc(C#Cc2ccncc2)c1	140 to 142
CCOC(=O)c1ccccc1NCCOc1cccc2ccccc12	81 to 83
O=c1[nH]c2cc(Br)c3c(c2[nH]c1=O)CN(CCc1ccccc1)CC3	290 to 295
Cc1ccc(C2(C#N)C3CC4CC(C3)CC2C4)cc1 (stereo not drawn)	99 to 100
O=S(CCCCF)CCCCCOc1ccc(C2=C(c3ccccc3)CCCc3cc(O)ccc32)cc1 (stereo not drawn)	233
O=C1Nc2ccccc2Oc2cscc21	240 to 241
CC(C)(C)c1cc(O)cc(C(C)(C)C)c1Sc1nnc(-c2ccccn2)o1	128 to 129
Nc1n[nH]c(-c2ccccc2)c1CC(=O)O	214 to 216
CC(=O)NC[C@H]1CN(c2ccc3c(c2)OCC(C)N3)C(=O)O1 (stereo partly drawn)	163 to 165
CCCCCCCCC(C(=O)O)C(O)(CC(=O)O)C(=O)O (stereo not drawn)	65.8 to 66.7
Clc1ccccc1Cc1nc2cccc(CCc3nccs3)c2o1	64 to 66
Cc1ccc2c3c(ccc2n1)OCC(CN1C2CCC1CC(O)(c1ccc4ccccc4c1)C2)O3 (stereo not drawn)	218
OC1c2ccccc2Sc2ccccc21	102 to 105
COc1c(C)c(NC(=O)CC(C)(C)C)c(C)c2c1OCC2c1ccc(C(C)C)cc1 (stereo not drawn)	150 to 151
O=C(Nc1cccc(Cl)c1)ONC1=Nc2ccc([N+](=O)[O-])cc2C(c2ccccc2)=NC1	123 to 125

SMILES	melting point [°C]
CC(=O)Oc1cc(C(=O)Cl)cc(OC(C)=O)c1OC(C)=O	108 to 110
CNC(=O)c1cc(NC(=O)c2ccc(C)c(Nc3nccc(-c4cccnc4)n3)c2)cc(C(F)(F)F)c1	245 to 249
C#CCc1[nH]c(C)c2c1CN=C(c1ccccc1F)c1cc(Cl)ccc1-2	179 to 180
O=C(O)c1ccc(-c2cnc3[nH]c(=O)n(CC4CCCCC4)c3n2)cc1	> 350
CCNC(=S)C1=CC(C)(C)Oc2ccc(C#N)cc21	151 to 153
O=C(NC1CCCCNC1=O)c1cccnc1 (stereo not drawn)	177 to 178
COC(=O)c1cc(N)nc(-c2ccc(Cl)cc2F)n1	210 to 213
O=C(O)CCc1ccc(SCc2coc(/C=C/c3ccccc3)n2)cc1	120 to 121
CNC(=O)NC(Cc1c[nH]c2ccccc12)C(=O)NCc1cc(C(F)(F)F)cc(C(F)(F)F)c1 (stereo not drawn)	213 to 215
Nc1nc(N)nc(-c2ccc(NS(=O)(=O)c3ccc4ccccc4c3)cc2)n1	230 to 233
CC(C)(C)C(=O)c1sc(NC(=O)c2ccncc2)nc1-c1ccco1	240 to 245
CCN(CC)c1ccc(/C=C/C(=O)CC(=O)/C=C/c2ccc(OC)c(O)c2)c(O)c1	101 to 108
O=[N+]([O-])c1cccc2cc(O)c(O)cc12	199 to 201
CCOC(=O)Nc1nc(C)c(-c2nc3ccccc3c(=O)n2-c2cccc(C)c2)s1	210 to 211
COC(=O)c1cncn1C1c2ccccc2C2OC2C1(C)C (stereo not drawn)	60 to 68
CN(C)/C=C1/C(=O)N(C(=O)OC(C)(C)C)C2C3=C(CCCC3(C)C)CC12 (stereo not drawn)	170 to 172
COC(=O)CC(NC(=O)C(C)(C)C)C(C)=O (stereo not drawn)	68 to 69
CCNC(=O)/C=C/CSc1nc(N)cc(Cl)n1	160 to 161
CN(C)c1ccccc1SCc1noc(-c2ccccc2)n1	100
CN(C)C1(c2ccccc2)CCC(CNC(=S)NCCc2c[nH]c3ccccc23)CC1 (stereo not drawn)	92 to 95
CC(C)CCOCC(O)C(CC(C)C)NC(=O)C(Cc1c[nH]cn1)NC(=O)C(CC(=O)NCCc1ccccc1)Cc1cccc2ccccc12 (mixture of isomers)	73 to 76
CCC(O)c1nc2c(C(F)(F)F)cccc2c(O)c1C(=O)Nc1nccs1 (stereo not drawn)	180
CC(=O)OC1(C(C)=O)CCC2C3C(OS(C)(=O)=O)C(Cl)C4=CC(=O)OCC4(C)C3CCC21C (stereo not drawn)	222 to 226
